Here are results for eight compounds from ChEMBL document CHEMBL4819009, “Modulators of hERAP2 discovered by high-throughput screening” (Eur J Med Chem, 2021).

The target of test [1] is T1, Endoplasmic reticulum aminopeptidase 2 (Homo sapiens, UniProt Q6P179). The experiment in a line: Inhibition of human ERAP2.
For test [2], the target named is T1, Endoplasmic reticulum aminopeptidase 2. As to the kind of experiment: Activation of recombinant ERAP2 (unknown origin) expressed in baculovirus infected Hi-5 insect cells at 100 uM using R-AMC as substrate preincubated for 30 mins followed by substrate addition and measured every 3 mins for 1 hr by flourescence assay relative to control. As to conditions: filed as activator, time 90.0 min.

Test [3] concerns the target Endoplasmic reticulum aminopeptidase 1 (Homo sapiens) (UniProt Q9NZ08). As to the kind of experiment: Inhibition of recombinant C-terminal 10-His-tagged human ERAP1 at 100 uM using L-AMC as substrate preincubated for 30 mins followed by substrate addition measured every 3 mins for 1 hr by flourescence assay relative to control. As to conditions: time 90.0 min.
Test [4] deals with Leucyl-cystinyl aminopeptidase (IRAP), Homo sapiens (UniProt Q9UIQ6). The experiment in a line: Inhibition of recombinant human IRAP expressed in HEK293 cells at 100 uM using L-AMC as substrate preincubated for 30 mins followed by substrate addition measured every 3 mins for 1 hr by flourescence assay relative to control. As to conditions: time 90.0 min.
Sequence of Leucyl-cystinyl aminopeptidase (IRAP), Homo sapiens (Q9UIQ6 whole entry, looked up): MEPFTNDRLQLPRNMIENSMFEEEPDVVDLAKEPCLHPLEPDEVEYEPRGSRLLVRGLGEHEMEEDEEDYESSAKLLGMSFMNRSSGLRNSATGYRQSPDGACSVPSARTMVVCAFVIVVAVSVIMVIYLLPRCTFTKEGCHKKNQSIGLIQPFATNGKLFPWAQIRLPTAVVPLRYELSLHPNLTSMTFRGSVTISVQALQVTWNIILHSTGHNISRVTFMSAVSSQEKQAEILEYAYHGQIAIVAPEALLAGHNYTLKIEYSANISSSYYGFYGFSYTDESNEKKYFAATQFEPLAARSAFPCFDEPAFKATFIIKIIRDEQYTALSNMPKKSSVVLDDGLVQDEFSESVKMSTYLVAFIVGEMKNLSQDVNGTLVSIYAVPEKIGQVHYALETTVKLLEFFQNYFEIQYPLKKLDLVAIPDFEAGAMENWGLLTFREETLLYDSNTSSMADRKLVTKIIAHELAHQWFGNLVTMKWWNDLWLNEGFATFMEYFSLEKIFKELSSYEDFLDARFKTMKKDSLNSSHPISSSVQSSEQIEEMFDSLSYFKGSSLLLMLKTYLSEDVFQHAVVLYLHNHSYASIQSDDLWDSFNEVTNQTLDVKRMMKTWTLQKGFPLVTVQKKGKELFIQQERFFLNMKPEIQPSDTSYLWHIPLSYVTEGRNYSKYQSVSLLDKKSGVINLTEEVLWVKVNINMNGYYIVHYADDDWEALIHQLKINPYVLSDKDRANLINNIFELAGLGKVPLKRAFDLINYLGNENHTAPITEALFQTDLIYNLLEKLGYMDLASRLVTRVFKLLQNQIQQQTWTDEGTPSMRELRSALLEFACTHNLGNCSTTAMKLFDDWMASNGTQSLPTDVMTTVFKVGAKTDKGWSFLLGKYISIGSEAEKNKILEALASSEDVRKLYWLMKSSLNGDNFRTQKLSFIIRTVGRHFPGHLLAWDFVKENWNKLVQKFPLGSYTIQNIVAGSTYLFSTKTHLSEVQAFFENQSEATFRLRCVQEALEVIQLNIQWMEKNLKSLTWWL
Test [5] concerns the target T1, Endoplasmic reticulum aminopeptidase 2. The experiment in a line: Inhibition of human ERAP2 assessed as hydrolysis of KSIINFEKL to SIINFEKL measured after 2 hrs by LC-MS analysis.
Test [6] shares this target. As to the kind of experiment: Inhibition of recombinant ERAP2 (unknown origin) expressed in baculovirus infected Hi-5 insect cells using R-AMC as substrate preincubated for 30 mins followed by substrate addition and measured every 3 mins for 1 hr by flourescence assay.
Test [7] shares this target. The experiment in a line: Inhibition of recombinant ERAP2 (unknown origin) expressed in baculovirus infected insect cells at 2 mM using R-AMC as substrate preincubated for 30 mins followed by substrate addition and measured every 3 mins for 1 hr by flourescence assay relative to control. As to conditions: time 90.0 min.

T1 sequence (Q6P179 whole entry): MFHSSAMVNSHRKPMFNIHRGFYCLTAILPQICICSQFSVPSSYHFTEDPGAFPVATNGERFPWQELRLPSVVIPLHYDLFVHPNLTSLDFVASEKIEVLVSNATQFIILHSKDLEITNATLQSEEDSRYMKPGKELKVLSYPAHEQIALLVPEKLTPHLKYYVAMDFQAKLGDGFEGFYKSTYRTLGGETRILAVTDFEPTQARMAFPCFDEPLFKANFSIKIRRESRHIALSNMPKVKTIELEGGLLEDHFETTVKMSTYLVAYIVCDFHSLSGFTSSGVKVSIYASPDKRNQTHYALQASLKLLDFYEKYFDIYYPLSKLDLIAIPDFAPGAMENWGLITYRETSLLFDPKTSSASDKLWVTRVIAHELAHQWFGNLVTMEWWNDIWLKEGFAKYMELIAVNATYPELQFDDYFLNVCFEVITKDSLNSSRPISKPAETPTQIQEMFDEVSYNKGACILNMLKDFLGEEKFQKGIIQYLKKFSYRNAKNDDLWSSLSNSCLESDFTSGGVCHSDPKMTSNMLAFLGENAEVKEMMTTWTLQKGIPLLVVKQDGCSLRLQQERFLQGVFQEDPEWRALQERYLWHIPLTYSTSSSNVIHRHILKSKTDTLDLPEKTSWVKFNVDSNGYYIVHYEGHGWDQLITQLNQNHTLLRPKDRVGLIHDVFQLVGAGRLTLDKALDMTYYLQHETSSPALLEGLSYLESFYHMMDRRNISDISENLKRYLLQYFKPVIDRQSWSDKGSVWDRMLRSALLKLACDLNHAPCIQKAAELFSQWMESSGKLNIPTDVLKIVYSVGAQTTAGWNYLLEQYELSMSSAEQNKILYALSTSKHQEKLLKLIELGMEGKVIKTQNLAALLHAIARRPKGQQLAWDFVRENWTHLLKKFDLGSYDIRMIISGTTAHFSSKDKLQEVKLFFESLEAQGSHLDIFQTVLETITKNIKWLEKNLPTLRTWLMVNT
Sequence of Endoplasmic reticulum aminopeptidase 1 (Homo sapiens) (Q9NZ08 whole entry): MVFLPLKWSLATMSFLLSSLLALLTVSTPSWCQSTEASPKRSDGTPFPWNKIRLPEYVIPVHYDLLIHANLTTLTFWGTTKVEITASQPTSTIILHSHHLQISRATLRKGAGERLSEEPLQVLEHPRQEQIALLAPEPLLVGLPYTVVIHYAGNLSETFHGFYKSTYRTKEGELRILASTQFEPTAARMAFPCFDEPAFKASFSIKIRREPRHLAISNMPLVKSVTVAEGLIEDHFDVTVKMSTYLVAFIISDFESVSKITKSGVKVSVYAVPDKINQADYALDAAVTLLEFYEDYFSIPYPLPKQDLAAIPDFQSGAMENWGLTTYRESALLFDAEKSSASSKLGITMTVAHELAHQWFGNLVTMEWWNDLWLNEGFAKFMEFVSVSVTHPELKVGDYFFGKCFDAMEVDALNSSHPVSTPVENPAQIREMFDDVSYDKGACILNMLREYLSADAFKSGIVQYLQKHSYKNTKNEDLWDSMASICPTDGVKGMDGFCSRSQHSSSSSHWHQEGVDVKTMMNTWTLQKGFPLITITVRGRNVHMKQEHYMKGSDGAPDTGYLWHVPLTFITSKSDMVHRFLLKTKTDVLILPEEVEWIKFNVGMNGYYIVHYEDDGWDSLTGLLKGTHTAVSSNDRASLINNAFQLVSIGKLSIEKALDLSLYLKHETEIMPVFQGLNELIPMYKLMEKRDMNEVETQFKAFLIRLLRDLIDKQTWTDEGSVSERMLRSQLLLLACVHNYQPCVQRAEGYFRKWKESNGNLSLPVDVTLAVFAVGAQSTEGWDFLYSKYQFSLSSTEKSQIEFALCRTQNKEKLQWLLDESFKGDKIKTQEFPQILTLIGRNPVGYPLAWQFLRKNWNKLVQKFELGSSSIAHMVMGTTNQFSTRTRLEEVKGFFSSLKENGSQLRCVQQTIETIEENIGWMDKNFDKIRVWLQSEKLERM

As for `C#CC[C@H](CP(=O)(O)[C@@H](N)CCc1ccccc1)C(=O)N[C@@H](Cc1ccccc1)C(N)=O`, the IC50 (as a rule, the concentration needed to halve the response being measured) in test [1] is 33 µM.
In the case of `CC(C)C[C@@H](C(=O)O)N(C)C(=O)c1ccc(N(CCc2ccccc2)S(=O)(=O)c2ccccc2)cc1`, the fold change (FC) in test [2] was 1.43.
Consider `CN(C(=O)c1ccc(N(CCc2ccccc2)S(=O)(=O)c2ccc(F)cc2)cc1)[C@@H](Cc1ccccc1)C(=O)O`, for which the inhibition (commonly how much of the control response was suppressed) in test [3] was under 20%; in test [4], 50%. For the same compound, the fold change (FC) in test [2] turned out to be 1.84.
As for `CN(C(=O)c1ccc(N(CCc2ccccc2)S(=O)(=O)c2ccccc2)cc1)[C@@H](Cc1ccccc1)C(=O)O`, the IC50 in test [5] came out at 89 µM. Besides, the inhibition in test [3] was under 20%; in test [4] it was 50%. In test [2], the fold change (FC) was 1.76.
For `CN(C(=O)c1ccc(N(CCN2CCCC2)S(=O)(=O)c2ccc(F)cc2)cc1)[C@@H](Cc1ccccc1)C(=O)O`, the figures for the IC50 in test [5] and in test [6] were 98 µM and 9.7 µM, respectively. Moreover, the values for the inhibition in test [3] and in test [4] were 10% and 49%, respectively.
Turning to `O=C(O)CN(CC(=O)N1CCN(Cc2ccccc2)C[C@@H]1Cc1c[nH]c2ccccc12)c1ccccc1`, in test [3], the inhibition is under 10%.
Regarding `CC(C)C[C@H](NC(=O)[C@@H](O)[C@H](N)Cc1ccccc1)C(=O)O`, in test [7], the inhibition was found to be 100%.
Take `CC(C)C[C@@H](C(=O)O)N(C)C(=O)c1ccc(N(CCc2ccccc2)S(=O)(=O)c2ccc(F)cc2)cc1`: in test [2], the fold change (FC) amounted to 1.46.
